Here are results for 24 molecules from patent publication US6608086B2, “Dihydropyridines and new uses thereof” (Synaptic Pharmaceutical Corporation, priority 1993, dated 2003).

Series [1] has as its target T1, α1A Human Adrenergic Receptor (Homo sapiens, UniProt P25100).
T1 construct: The entire coding region of α1A (1719 bp); expressed in transfected cells
T1 sequence (P25100 1-572): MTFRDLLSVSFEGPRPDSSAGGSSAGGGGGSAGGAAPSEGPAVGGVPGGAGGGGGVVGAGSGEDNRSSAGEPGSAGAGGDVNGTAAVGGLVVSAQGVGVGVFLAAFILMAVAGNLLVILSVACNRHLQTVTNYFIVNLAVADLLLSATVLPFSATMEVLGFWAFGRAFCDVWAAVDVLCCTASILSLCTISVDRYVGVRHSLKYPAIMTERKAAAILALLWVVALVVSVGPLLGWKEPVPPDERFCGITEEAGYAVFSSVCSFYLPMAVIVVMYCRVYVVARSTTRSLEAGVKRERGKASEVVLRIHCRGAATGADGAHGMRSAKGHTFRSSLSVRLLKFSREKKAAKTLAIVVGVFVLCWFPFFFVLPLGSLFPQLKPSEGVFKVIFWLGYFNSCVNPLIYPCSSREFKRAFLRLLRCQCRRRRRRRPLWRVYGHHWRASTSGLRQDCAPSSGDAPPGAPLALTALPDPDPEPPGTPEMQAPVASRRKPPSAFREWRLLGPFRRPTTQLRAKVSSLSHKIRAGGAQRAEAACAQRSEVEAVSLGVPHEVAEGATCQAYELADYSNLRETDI
Kind of series: Radioligand binding, [3H]prazosin, cloned human α1A adrenergic receptor. In outline: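 In pH 7.5 Tris/MgCl2/ascorbic acid buffer, α1A-expressing LM(tk−) membranes are exposed to 0.5 nM [3H]prazosin (37° C, 20 min). Excess phentolamine (10 μM) marks nonspecific binding before rapid filtration.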

Where [2] appears, read: pKi alpha-1 1a, [3H]prazosin, cloned human receptor in LM(tk-) cell membranes, SEM and n in lines below.
The mark [3] stands for this setting: pKi alpha-1 1a, [3H]prazosin, cloned human α1A receptor, LM(tk−) cell membranes.
Where [4] appears, read: [3H]prazosin, cloned human α1A receptor, LM(tk−) cell membranes, read-out: pKi alpha-1 1a (converted).

Where a name gives a salt, the structure may show the parent alone. Read-outs that look alike come from different tables or passages of the source.

For `COC(=O)C1=C(C)NC(C)=C(C(=O)NCCCN2CCC(c3ccccc3)(c3ccccc3)CC2)C1c1ccc(C(F)(F)F)cc1` (stereo not drawn) [Example 1], the melting point (commonly the temperature of the solid-liquid transition) was 228 to 231 °C. In series [1] (pKi alpha-1 1a), this molecule gave a Ki of 2570 nM.
The corresponding values for `COC(=O)C1=C(C)NC(C)=C(C(=O)NCCCN2CCC(c3ccccc3)(c3ccccc3)CC2)C1c1ccncc1` (stereo not drawn) [Example 5, 1,4-Dihydro-5-methoxycarbonyl-2,6-dimethyl-3-(N-(3-(4,4-diphenylpiperidin-1-yl)propyl)carboxamido)-4-(4-pyridyl)pyridine] are 224 to 226 °C (dec.) and 1820 nM.
For `COC(=O)C1=C(C)NC(C)=C(C(=O)NCCCN2CCC(c3ccccc3)(c3ccccc3)CC2)C1C1CCCCC1` (stereo not drawn) [Example 6], in that order: 171 to 174 °C and 1120 nM.
The corresponding values for `COC(=O)C1=C(C)NC(C)=C(C(=O)NCCCN2CCC(c3ccccc3)(c3ccccc3)CC2)C1c1ccc(-c2ccccc2)cc1` (stereo not drawn) [Example 7] are 136 to 139 °C and 1170 nM.
`COC(=O)C1=C(C)NC(C)=C(C(=O)NCCCN2CCC(c3ccccc3)(c3ccccc3)CC2)C1Cc1ccccc1` (stereo not drawn) [Example 8, 4-Benzyl-1,4-dihydro-3-methoxycarbonyl-2,6-dimethyl-5-(N-(3-(4,4-diphenylpiperidin-1-yl)propyl)carboxamido)pyridine] came in with a melting point of 175 to 177 °C. In series [1] (setting [2]), this molecule gave a Ki of 380 nM.
For `COC(=O)C1=C(C)NC(C)=C(C(=O)NCCCN2CCC(c3ccccc3)(c3ccccc3)CC2)C1c1cc[n+]([O-])cc1` (stereo not drawn) [Example 9, 1,4-Dihydro-3-methoxycarbonyl-2,6-Dimethyl-4-(1-oxido-4-pyridyl)-5-(N-(3-(4,4-diphenylpiperidin-1-yl)propyl)carboxamido)pyridine], in that order: 206 to 209 °C (dec.) and 1700 nM.
Take `COC(=O)C1=C(C)NC(C)=C(C(=O)NCCCN2CCC(c3ccccc3)(c3ccccc3)CC2)C1c1ccc(Cl)cc1` (stereo not drawn) [Example 10, 4-(4-Chlorophenyl)-1,4-dihydro-5-methoxycarbonyl-2,6-Dimethyl-5-(N-(3-(4,4-diphenylpiperidin-1-yl)propyl)carboxamido)pyridine]: the melting point fell in the range of 240 to 242 °C. The Ki in series [1] (pKi alpha-1 1a) is 447 nM.
`COC(=O)C1=C(C)NC(C)=C(C(=O)NCCCN2CCC(c3ccccc3)(c3ccccc3)CC2)C1c1ccc2c(c1)OCO2` (stereo not drawn) [Example 11, 1,4-Dihydro-3-methoxycarbonyl-2,6-dimethyl-4-(3,4-methylenedioxyphenyl)-5-(N-(3-(4,4-diphenylpiperidin-1-yl)propyl)carboxamido)pyridine] gave a melting point of 197 to 200 °C. In series [1] (pKi alpha-1 1a), this molecule had a Ki of 302 nM.
For `COC(=O)C1=C(C)NC(C)=C(C(=O)NCCCN2CCC(c3ccccc3)(c3ccccc3)CC2)C1c1ccc(C#N)cc1` (stereo not drawn) [Example 12, 4-(4-Cyanophenyl)-1,4-dihydro-3-methoxycarbonyl-2,6-dimethyl-5-(N-(3-(4,4-diphenylpiperidin-1-yl)propyl)carboxamido)pyridine], in that order: 115 to 118 °C and 380 nM.
The corresponding values for `COC(=O)C1=C(C)NC(C)=C(C(=O)NCCCN2CCC(c3ccccc3)(c3ccccc3)CC2)C1c1ccc(I)cc1` (stereo not drawn) [Example 13, 1,4-Dihydro-4-(4-iodophenyl)-3-methoxycarbonyl-2,6-dimethyl-5-(N-(3-(4,4-diphenylpiperidin-1-yl)propyl)carboxamido)pyridine] are 228 to 230 °C (dec.) and 389 nM.
Consider `COC(=O)C1=C(C)NC(C)=C(C(=O)NCCCN2CCC(c3ccccc3)(c3ccccc3)CC2)C1c1cccnc1` (stereo not drawn) [Example 14, 1,4-Dihydro-3-methoxycarbonyl-2.6-dimethyl-5-(N-(3-(4,4-diphenylpiperidin-1-yl)propyl)carboxamido)-4-(3-pyridyl)pyridine], for which the melting point was 244 to 247 °C (dec.). In addition, in series [1] (setting [2]), the Ki is 4070 nM.
Regarding `COC(=O)C1=C(C)NC(C)=C(C(=O)NCCCN2CCC(c3ccccc3)(c3ccccc3)CC2)C1c1ccc(Br)cc1` (stereo not drawn) [Example 15, 4-(4-Bromophenyl)-1,4-dihydro-3-methoxycarbonyl-2,6-dimethyl-5-(N-(3-(4,4-diphenylpiperidin-1-yl)propyl)carboxamido)pyridine], the melting point was 244 to 247 °C (dec.). In series [1] (pKi alpha-1 1a), this molecule had a Ki of 417 nM.
`COC(=O)C1=C(C)N(C)C(C)=C(C(=O)OCCCN2CCC(c3ccccc3)(c3ccccc3)CC2)C1c1ccc([N+](=O)[O-])cc1` (stereo not drawn) [Example 92, 1,4-Dihydro-5-methoxycarbonyl-1,2,6-trimethyl-4-(4-nitrophenyl)-3-[3-(4,4-diphenylpiperidin-1-yl)propoxy]carbonylpyridine hydrochloride hydrate] gave a Ki in series [1] (pKi alpha-1 1a) of 209 nM.
Regarding `COc1ccc(C2(c3ccccc3)CCN(CCCNC(=O)C3=C(C)NC(C)=C(C(N)=O)C3c3ccc([N+](=O)[O-])cc3)CC2)cc1` (stereo not drawn) [Example 98, 5-Carboxamido-1,4-dihydro-3-{N-[3-(4-(4-methoxyphenyl)-4-phenylpiperidin-1-yl)propyl]}carboxamido-2,6-dimethyl-4-(4-nitrophenyl)pyridine hydrochloride], the Ki in series [1] (setting [3]) is 1100 nM.
`CCC1=C(C(N)=O)C(c2ccc([N+](=O)[O-])cc2)C(C(=O)NCCCN2CCC(O)(c3ccccc3)CC2)=C(CC)N1` (stereo not drawn) [Example 100, 5-Carboxamido-2,6-diethyl-1,4-dihydro-3-{N-(3-(4-hydroxy-4-phenylpiperidin-1-yl)propyl]}carboxamido-4-(4-nitrophenyl)pyridine hydrochloride hydrate] gave a Ki in series [1] (setting [3]) of 4900 nM.
With `CCC1=C(C(N)=O)C(c2ccc([N+](=O)[O-])cc2)C(C(=O)NCCCN2CCC(c3ccc(OC)cc3)(c3ccc(OC)cc3)CC2)=C(CC)N1` (stereo not drawn) [Example 103, 5-Carboxamido-2,6-diethyl-1,4-dihydro-3-{N-[3-(4,4-bis-(4-methoxyphenyl)piperidin-1-yl)propyl]}carboxamido}-4-(4-nitrophenyl)pyridine hydrochloride], in series [1] (pKi alpha-1 1a), the Ki was 2510 nM.
Take `CCC1=C(C(N)=O)C(c2ccc([N+](=O)[O-])cc2)C(C(=O)NCCCN2CCC3(CC2)C(=O)NCN3c2ccccc2)=C(CC)N1` (stereo not drawn) [Example 105, 5-Carboxamido-2,6-diethyl-1,4-dihydro-4-(4-nitrophenyl)-3-{N-[3-(1-phenyl-4-oxo-1,3,8-triazaspiro[4.3]decan-8-yl)propyl]}carboxamidopyridine hydrochloride hydrate]: the Ki in series [1] (pKi alpha-1 1a) is 2450 nM.
For `CCC1=C(C(N)=O)C(c2ccc([N+](=O)[O-])cc2)C(C(=O)NCCCN2CCC(C)(c3ccccc3)CC2)=C(CC)N1` (stereo not drawn) [Example 106, 5-Carboxamido-2,6-diethyl-1,4-dihydro-3-{N-[3-(4-Methyl-4-phenylpiperidin-1-yl)propyl]}carboxamido-4-(4-nitrophenyl)pyridine hydrochloride hydrate], the Ki in series [1] (setting [3]) is 2400 nM.
In turn, `CCC1=C(C(=O)NCCCN2CCC(c3ccccc3)(c3ccccc3)CC2)C(c2ccc(N)cc2)C(C(=O)OC)=C(C)N1` (stereo not drawn) [Example 114, 4-(4-Aminophenyl)-2-ethyl-1,4-dihydro-5-methoxycarbonyl-6-methyl-3-(N-(3-(4,4-diphenylpiperidin-1-yl)propyl)carboxamido)-pyridine] had a Ki in series [1] (pKi alpha-1 1a) of 550 nM.
`CCC1=C(C(N)=O)C(c2ccc(S(C)(=O)=O)cc2)C(C(=O)NCCCN2CCC(c3ccccc3)(c3ccccc3)CC2)=C(CC)N1` (stereo not drawn) [Example 116, 5-Carboxamido-2,6-diethyl-1,4-dihydro-4-(4-methanesulfonylphenyl)-3-(N-(3-(4,4-diphenylpiperidin-1-yl)propyl)carboxamido)-pyridine] gave a Ki in series [1] (setting [3]) of 186 nM.
`CCC1=C(C(N)=O)C(c2ccc([N+](=O)[O-])cc2)C(C(=O)NCCCN2CCN(c3ccccc3OC)CC2)=C(CC)N1` (stereo not drawn) [Example 125, 5-Carboxamido-2,6-diethyl-1,4-dihydro-3-(N-{3-[4-(2-methoxyphenyl)piperazin-1-yl]propyl})carboxamido-4-(4-nitrophenyl)pyridine]: the Ki in series [1] (setting [4]) was 77.6 nM.
The same measure, in the same setting: with `CCC1=C(C(=O)OCCC#N)C(c2ccc([N+](=O)[O-])cc2)C(C(=O)NCCCN2CCC(c3ccccc3)(c3ccccc3)CC2)=C(COC)N1` (stereo not drawn) [Example 135] the figure was 501 nM.
On to `CCC1=C(C(=O)NCCCN2CCC(c3ccccc3)(c3ccccc3)CC2)C(c2ccc([N+](=O)[O-])cc2)C(C(=O)NC)=C(COCCN=[N+]=[N-])N1` (stereo not drawn) [Example 151, 2-((2-Azidoethyl)oxy)methyl-6-ethyl-1,4-dihydro-3-(N-methyl)carboxamido-4-(4-nitro)phenyl-5-(N-(3-(4,4-diphenylpiperidin-1-yl)propyl))carboxamidopyridine], for which the Ki in series [1] (setting [3]) is 631 nM.
For `CC1=C(C(=O)NCCCN2CCC(c3ccccc3)(c3ccccc3)CC2)C(c2ccc([N+](=O)[O-])cc2)C(C(=O)OCCC#N)=C(C)N1` (stereo not drawn) [Example 160], in series [1] (setting [3]), the Ki is 251 nM.
